Converted amounts (≈) assume the structure as drawn. The source made the active and inactive calls. The calls are words filed in the database; no cut-off is given here.
Tests used:
Neisseria gonorrhoeae [1] = assay: Antimicrobial activity against Neisseria gonorrhoeae assessed as resistant isolates by EUCAST method; assay type: functional
Neisseria gonorrhoeae [2] = assay: Antimicrobial activity against Neisseria gonorrhoeae assessed as susceptible isolates by EUCAST method; assay type: functional
Neisseria gonorrhoeae [3] = assay: Antimicrobial activity against Neisseria gonorrhoeae isolates by CLSI agar dilution method; assay type: functional
Chlamydia trachomatis = assay: Antimicrobial activity against Chlamydia trachomatis isolates; assay type: functional; details: for MBC / MIC90: Chlamydia trachomatis
Neisseria gonorrhoeae [4] = assay: Antimicrobial activity against Neisseria gonorrhoeae assessed as susceptible isolates by CLSI method; assay type: functional
Plasma = assay: Trough plasma concentration in human; assay type: ADME, cell-free
Neisseria gonorrhoeae [5] = assay: Antimicrobial activity against Neisseria gonorrhoeae isolates up to 2 ug/ml by CLSI agar dilution method; assay type: functional, organism-based
Neisseria gonorrhoeae [6] = assay: Antimicrobial activity against Neisseria gonorrhoeae assessed as resistant isolates by CLSI method; assay type: functional

CC[C@H]1OC(=O)[C@H](C)[C@@H](O[C@H]2C[C@@](C)(OC)[C@@H](O)[C@H](C)O2)[C@H](C)[C@@H](O[C@@H]2O[C@H](C)C[C@H](N(C)C)[C@H]2O)[C@](C)(O)C[C@@H](C)CN(C)[C@H](C)[C@@H](O)[C@]1(C)O [AZITHROMYCIN]
Activity (Neisseria gonorrhoeae [1]): 5.7%
Activity (Neisseria gonorrhoeae [2]): 80%
MIC50 (Neisseria gonorrhoeae [3]): 0.25 µg/mL (≈ 0.334 µM)
MBC90 (Chlamydia trachomatis): 0.12 µg/mL (≈ 0.16 µM)
MBC (Chlamydia trachomatis): 0.015 µg/mL (≈ 0.02 µM)
MIC90 (Chlamydia trachomatis): 0.12 µg/mL (≈ 0.16 µM)

CO/N=C(\C(=O)N[C@@H]1C(=O)N2C(C(=O)O)=C(CSc3nc(=O)c(O)nn3C)CS[C@H]12)c1csc(N)n1 [CEFTRIAXONE]
Activity (Neisseria gonorrhoeae [1]): 0%
Activity (Neisseria gonorrhoeae [2]): 100%
Activity (Neisseria gonorrhoeae [4]): 100%

CC[C@H]1OC(=O)[C@H](C)[C@@H](O[C@H]2C[C@@](C)(OC)[C@@H](O)[C@H](C)O2)[C@H](C)[C@@H](O[C@@H]2O[C@H](C)C[C@H](N(C)C)[C@H]2O)[C@](C)(OC)C[C@@H](C)C(=O)[C@H](C)[C@@H](O)[C@]1(C)O [CLARITHROMYCIN]
MBC90 (Chlamydia trachomatis): 0.06 µg/mL (≈ 0.0802 µM)
MBC (Chlamydia trachomatis): 0.015 µg/mL (≈ 0.0201 µM)
MIC90 (Chlamydia trachomatis): 0.06 µg/mL (≈ 0.0802 µM)

C[C@H]1c2cccc(O)c2C(=O)C2=C(O)[C@]3(O)C(=O)C(C(N)=O)=C(O)[C@@H](N(C)C)[C@@H]3[C@@H](O)[C@@H]21.O [DOXYCYCLINE]
MBC90 (Chlamydia trachomatis): 0.06 µg/mL
MBC (Chlamydia trachomatis): 0.015 µg/mL
MIC90 (Chlamydia trachomatis): 0.06 µg/mL

CC(=O)O[C@H]1C[C@@]2(C)[C@@H](C[C@@H](O)[C@H]3[C@@]4(C)CC[C@@H](O)[C@@H](C)[C@@H]4CC[C@@]32C)/C1=C(\CCC=C(C)C)C(=O)O [FUSIDIC ACID]
Cmin (Plasma): 80 µg/mL
MIC50 (Neisseria gonorrhoeae [3]): 0.5 µg/mL (≈ 0.968 µM)
MIC90 (Neisseria gonorrhoeae [3]): 1 µg/mL (≈ 1.94 µM)
MBC90 (Chlamydia trachomatis): 0.5 µg/mL (≈ 0.968 µM)
MBC (Chlamydia trachomatis): 0.12 µg/mL (≈ 0.232 µM)
MIC90 (Chlamydia trachomatis): 0.5 µg/mL (≈ 0.968 µM)
Activity (Neisseria gonorrhoeae [5]): Active

CC1(C)S[C@@H]2[C@H](NC(=O)Cc3ccccc3)C(=O)N2[C@H]1C(=O)O [PENICILLIN G]
Activity (Neisseria gonorrhoeae [1]): 45.7%
Activity (Neisseria gonorrhoeae [6]): 45.7%
Activity (Neisseria gonorrhoeae [2]): 22.9%
MIC50 (Neisseria gonorrhoeae [3]): 1 µg/mL (≈ 2.99 µM)
Activity (Neisseria gonorrhoeae [4]): 22.9%

CC[C@H]1OC(=O)[C@H](C)C(=O)[C@H](C)[C@@H](O[C@@H]2O[C@H](C)C[C@H](N(C)C)[C@H]2O)[C@](C)(OC)C[C@@H](C)C(=O)[C@H](C)[C@H]2N(CCCCn3cnc(-c4cccnc4)c3)C(=O)O[C@]12C [TELITHROMYCIN]
MBC90 (Chlamydia trachomatis): 0.06 µg/mL (≈ 0.0739 µM)
MBC (Chlamydia trachomatis): 0.015 µg/mL (≈ 0.0185 µM)
MIC90 (Chlamydia trachomatis): 0.06 µg/mL (≈ 0.0739 µM)

CN(C)[C@@H]1C(O)=C(C(N)=O)C(=O)[C@@]2(O)C(O)=C3C(=O)c4c(O)cccc4[C@@](C)(O)[C@H]3C[C@@H]12 [TETRACYCLINE]
Activity (Neisseria gonorrhoeae [1]): 34.3%
Activity (Neisseria gonorrhoeae [6]): 34.3%
Activity (Neisseria gonorrhoeae [2]): 45.7%
MIC50 (Neisseria gonorrhoeae [3]): 1 µg/mL (≈ 2.25 µM)
Activity (Neisseria gonorrhoeae [4]): 22.9%

From ChEMBL document CHEMBL1649332, “Update on fusidic acid (CEM-102) tested against Neisseria gonorrhoeae and Chlamydia trachomatis” (Antimicrob Agents Chemother, 2010)
